Measurements reported in patent US20150045551A1, “FUSED AZOLE DERIVATIVE” (TAISHO PHARMACEUTICAL CO., LTD, priority 2012, published 2015).
Structures can show the parent of a compound that is named as a salt.

These compounds were tested against T1, Human V1b receptor (Homo sapiens, UniProt P47901) (assay: Binding test for V1b receptor ([3H]AVP displacement, crude membrane preparation)). Conditions: [3H]AVP 0.4 to 1 nmol/L; membranes of 293FT cells transiently expressing human V1b receptor; room temperature, 60 minutes.
T1 sequence (P47901 1-424): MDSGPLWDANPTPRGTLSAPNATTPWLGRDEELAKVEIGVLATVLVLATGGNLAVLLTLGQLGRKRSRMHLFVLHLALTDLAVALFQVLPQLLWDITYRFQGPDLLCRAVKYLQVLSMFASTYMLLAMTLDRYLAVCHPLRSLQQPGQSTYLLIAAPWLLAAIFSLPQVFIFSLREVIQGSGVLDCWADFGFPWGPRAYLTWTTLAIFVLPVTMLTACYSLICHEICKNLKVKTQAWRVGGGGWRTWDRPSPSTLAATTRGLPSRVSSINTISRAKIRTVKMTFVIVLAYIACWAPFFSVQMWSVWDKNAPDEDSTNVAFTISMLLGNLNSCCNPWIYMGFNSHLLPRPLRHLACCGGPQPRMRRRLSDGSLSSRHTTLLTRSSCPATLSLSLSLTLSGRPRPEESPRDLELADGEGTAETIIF
Design: expressed in transfected cells; host or cells: 293FT cells (transient expression)
Method: Human V1b receptor was transiently expressed in 293FT cells, which were then recovered and homogenated in a 15 mmol/L tris-hydrochloric acid buffer (pH 7.4 and containing 2 mmol/L magnesium chloride, 0.3 mmol/L ethylenediaminetetracetic acid, and 1 mmol/L glycol ether diaminetetraacetic acid). The resulting homogenate was centrifuged at 50,000×g at 4 ° C. for 20 minutes. The precipitate was resuspended in a 75 mmol/L tris-hydrochloric acid buffer (pH 7.4 and containing 12.5 mmol/L magnesium chloride, 0.3 mmol/L ethylenediaminetetracetic acid, 1 mmol/L glycol ether diaminetetraacetic acid, and 250 mmol/L sucrose) to give a crude membrane preparation, which was stored at −80° C. until the binding test was initiated. In the binding test, the crude membrane preparation was diluted with a 50 mmol/L tris-hydrochloric acid buffer (pH 7.4 and containing 10 mmol/L magnesium chloride and 0.1% bovine serum albumin) and mixed with each test compound and [^3H]AVP (final concentration: 0.4 to 1 nmol/L), followed by incubation at room temperature for 60 minutes. The test compound was serially diluted with DMSO so that it would have final concentrations of 0.01 nmol/L to […] at the time of mixing. After the incubation, the mixture was suction filtered through a GF/C filter that was preliminarily impregnated with 0.3% polyethyleneimine. The GF/C filter was dried and after adding a scintillator, the residual radioactivity on the filter was measured using TopCount (PerkinElmer Inc.). The radioactivity in the presence of unlabeled AVP at 10 μmol/L was defined as 0%, and the radioactivity in the absence of unlabeled AVP was defined as 100%. A dose-response curve was plotted from radioactivities in the presence of a test compound at various concentrations, and the 50% inhibitory concentration (IC50 value) of the test compound was calculated.

| Compound | IC50 [µM] |
| --- | --- |
| CC(C)NC(=O)Cn1c(-c2cccc(Cl)c2)cc2cc(OC3CCN(C4CC4)CC3)ccc21 [Example B-3, 2-{2-(3-chlorophenyl)-5-[(1-cyclopropylpiperidin-4-yl)oxy]-1H-indol-1-yl}-N-isopropyl acetamide] | 0.0104 |
| CC(C)NC(=O)Cn1c(-c2cccc(Cl)c2)cc2cc(OCCCN3CCOCC3)ccc21 [Example B-2, 2-{2-(3-chlorophenyl)-5-[3-(morpholin-4-yl)propoxy]-1H-indol-1-yl}-N-isopropyl acetamide] | 0.0064 |
| CC(C)NC(=O)Cn1c(-c2cccc(Cl)c2)cc2c1CCN(CCCCN1CCCCC1)C2 [Example E-1, 2-{2-(3-chlorophenyl)-5-[4-(piperidin-1-yl)butyl]-4,5,6,7-tetrahydro-1H-pyrrolo[3,2-c]pyridin-1-yl}-N-isopropyl acetamide] | 0.522 |
| CC(C)NC(=O)Cn1c(-c2cccc(Cl)c2)nc2cc(OCCCN3CCOCC3)ccc21 [Example A-2, 2-{2-(3-chlorophenyl)-5-[3-(morpholin-4-yl)propoxy]-1H-benzimidazol-1-yl}-N-isopropyl acetamide] | 0.0141 |
| COc1cc(-c2nc3cc(OCCCN4CC5(COC5)C4)ccc3n2CC(=O)NC(C)C)ccc1F [Example A-7, 2-{2-(4-fluoro-3-methoxyphenyl)-5-[3-(2-oxa-6-azaspiro[3.3]hept-6-yl)propoxy]-1H-benzimidazol-1-yl}-N-isopropyl acetamide] | 0.0048 |
| CC(C)NC(=O)Cn1c(-c2cccc(Cl)c2)cc2cc(OCCCN3CCCC(O)C3)ccc21 (stereo not shown) [Example B-7, 2-{2-(3-chlorophenyl)-5-[3-(3-hydroxypiperidin-1-yl)propoxy]-1H-indol-1-yl}-N-isopropyl acetamide] | 0.0734 |
| CC(C)NC(=O)Cn1c(-c2ccc(F)c(Cl)c2)nc2cc(OCCCN3CC4(COC4)C3)ccc21 [Example A-15, 2-{2-(3-chloro-4-fluorophenyl)-5-[3-(2-oxa-6-azaspiro[3.3]hept-6-yl)propoxy]-1H-benzimidazol-1-yl}-N-isopropyl acetamide] | 0.0038 |
| COc1cc(-c2nc3cc(N4CCCN(C(C)C)CC4)ccc3n2CC(=O)NC(C)(C)C)ccc1F [Example A-20, N-tert-butyl-2-[2-(4-fluoro-3-methoxyphenyl)-5-(4-isopropyl-1,4-diazepan-1-yl)-1H-benzimidazol-1-yl]acetamide] | 0.0086 |
| CC(C)NC(=O)Cn1c(-c2cccc(Cl)c2)nc2cc(OCCCN3[C@@H]4CC[C@H]3COC4)ccc21 [Example A-4, 2-[2-(3-chlorophenyl)-5-{3-[(1R,5S)-3-oxa-8-azabicyclo[3.2.1]oct-8-yl]propoxy}-1H-benzimidazol-1-yl]-N-isopropyl acetamide] | 0.005 |
| CC(C)NC(=O)Cn1c(-c2cccc(Cl)c2)cc2cc(OCCCN3CCC4(CC3)COC4)ccc21 [Example B-10, 2-{2-(3-chlorophenyl)-5-[3-(2-oxa-7-azaspiro[3.5]non-7-yl)propoxy]-1H-indol-1-yl}-N-isopropyl acetamide] | 0.0202 |
| CC(C)NC(=O)Cn1c(-c2ccc(F)c(Cl)c2)nc2cc(OCCCN3CCCCC3)ccc21 [Example A-12, 2-{2-(3-chloro-4-fluorophenyl)-5-[3-(piperidin-1-yl)propoxy]-1H-benzimidazol-1-yl}-N-isopropyl acetamide hydrochloride] | 0.0076 |
| CC(C)NC(=O)Cn1c(=O)c2cc(OCCCN3CCCCC3)ccc2n1-c1cccc(Cl)c1 [Example D-1, 2-{1-(3-chlorophenyl)-3-oxo-5-[3-(piperidin-1-yl)propoxy]-1,3-dihydro-2H-indazol-2-yl}-N-isopropyl acetamide] | 0.375 |
| CN1CCCN(c2ccc3c(c2)nc(-c2ccc(F)c(Cl)c2)n3CC(=O)NC(C)(C)C)CC1 [Example A-23, N-tert-butyl-2-[2-(3-chloro-4-fluorophenyl)-5-(4-methyl-1,4-diazepan-1-yl)-1H-benzimidazol-1-yl]acetamide] | 0.0031 |
| CC(C)NC(=O)Cc1c(-c2ccc(F)c(Cl)c2)nc2cc(OCCCN3CCOCC3)ccn12 [Example C-2, 2-{2-(3-chloro-4-fluorophenyl)-7-[3-(morpholin-4-yl)propoxy]imidazo[1,2-a]pyridin-3-yl}-N-isopropyl acetamide] | 0.0099 |
| COc1cc(-c2cc3cc(OCCCN4CC5(COC5)C4)ccc3n2CC(=O)NC(C)C)ccc1F [Example B-15, 2-{2-(4-fluoro-3-methoxyphenyl)-5-[3-(2-oxa-6-azaspiro[3.3]hept-6-yl)propoxy]-1H-indol-1-yl}-N-isopropyl acetamide] | 0.0083 |
| COc1cccc(-c2nc3cc(OCCCN4CCOCC4)ccc3n2CC(=O)NC(C)C)n1 [Example A-18, N-isopropyl-2-{2-(6-methoxypyridin-2-yl)-5-[3-(morpholin-4-yl)propoxy]-1H-benzimidazol-1-yl}acetamide] | 0.0836 |
| CC(C)NC(=O)Cc1c(-c2ccc(F)c(Cl)c2)nc2cc(OCCCN3CCCCC3)ccn12 [Example C-1, 2-{2-(3-chloro-4-fluorophenyl)-7-[3-(piperidin-1-yl)propoxy]imidazo[1,2-a]pyridin-3-yl}-N-isopropyl acetamide] | 0.0107 |
| COc1cc(-c2nc3ccc(-c4cc(Cl)cc(CN(C)C)c4)cc3n2CC(=O)NC(C)C)ccc1F [Example A-10, 2-[6-{3-chloro-5-[(dimethylamino)methyl]phenyl}-2-(4-fluoro-3-methoxyphenyl)-1H-benzimidazol-1-yl]-N-isopropyl acetamide] | 0.141 |
| CC(C)NC(=O)Cn1c(-c2ccc(F)c(Cl)c2)nc2cc(OCCCCN3CCCCC3)ccc21 [Example A-17, 2-{2-(3-chloro-4-fluorophenyl)-5-[4-(piperidin-1-yl)butoxy]-1H-benzimidazol-1-yl}-N-isopropyl acetamide] | 0.176 |
| CC(C)NC(=O)Cn1c(-c2cccc(Cl)c2)nc2cc(OCCCN3CC4(COC4)C3)ccc21 [Example A-3, 2-{2-(3-chlorophenyl)-5-[3-(2-oxa-6-azaspiro[3.3]hept-6-yl)propoxy]-1H-benzimidazol-1-yl}-N-isopropyl acetamide] | 0.0083 |
| CC(C)NC(=O)Cc1nc2cc(OCCCN3CCCCC3)ccn2c1-c1cccc(Cl)c1 [Example F-1, 2-{3-(3-chlorophenyl)-7-[3-(piperidin-1-yl)propoxy]imidazo[1,2-a]pyridin-2-yl}-N-isopropyl acetamide] | 0.082 |
| COc1cc(-c2cc3cc(OCCCN4CCCCC4)ccc3n2CC(=O)NC(C)C)ccc1F [Example B-11, 2-{2-(4-fluoro-3-methoxyphenyl)-5-[3-(piperidin-1-yl)propoxy]-1H-indol-1-yl}-N-isopropyl acetamide] | 0.0521 |
| COc1cc(-c2nc3cc(N4CCCN(C)CC4)ccc3n2CC(=O)NC(C)(C)C)ccc1F [Example A-19, N-tert-butyl-2-[2-(4-fluoro-3-methoxyphenyl)-5-(4-methyl-1,4-diazepan-1-yl)-1H-benzimidazol-1-yl]acetamide] | 0.0034 |
| CC(C)NC(=O)Cn1c(-c2cccc(Cl)c2)cc2cc(OCCCN3CCC(O)C3)ccc21 (stereo not shown) [Example B-8, 2-{2-(3-chlorophenyl)-5-[3-(3-hydroxypyrrolidin-1-yl)propoxy]-1H-indol-1-yl}-N-isopropyl acetamide] | 0.0523 |
| COc1cc(-c2cc3cc(OCCCN4CCCC(O)C4)ccc3n2CC(=O)NC(C)C)ccc1F (stereo not shown) [Example B-13, 2-{2-(4-fluoro-3-methoxyphenyl)-5-[3-(3-hydroxypiperidin-1-yl)propoxy]-1H-indol-1-yl}-N-isopropyl acetamide] | 0.0871 |
| COc1cc(-c2nc3cc(OCCCN4[C@@H]5CC[C@H]4COC5)ccc3n2CC(=O)NC(C)C)ccc1F [Example A-8, 2-[2-(4-fluoro-3-methoxyphenyl)-5-{3-[(1R,5S)-3-oxa-8-azabicyclo[3.2.1]oct-8-yl]propoxy}-1H-benzimidazol-1-yl]-N-isopropyl acetamide] | 0.0025 |
| CC(C)NC(=O)Cn1c(-c2cccc(Cl)c2)cc2cc(CCCCN3CCCCC3)ccc21 [Example B-18, 2-{2-(3-chlorophenyl)-5-[4-(piperidin-1-yl)butyl]-1H-indol-1-yl}-N-isopropyl acetamide] | 0.0201 |
| COc1cc(-c2nc3cc(N4CCC(N5CCCC5)CC4)ccc3n2CC(=O)NC(C)(C)C)ccc1F [Example A-21, N-tert-butyl-2-{2-(4-fluoro-3-methoxyphenyl)-5-[4-(pyrrolidin-1-yl)piperidin-1-yl]-1H-benzimidazol-1-yl}acetamide] | 0.0011 |
